The record followed here is patent publication US5242680A, “Thiol-reactive maleimido-based radiolabeling reagents” (Merck & Co., Inc., priority 1991, dated 1993).

The target of assay [1] is T1, adenylate cyclase (PTH receptor) in human SaOS-2/B10 cells (Homo sapiens, UniProt Q03431).
T1 construct: endogenous in cells; host or cells: SaOS-2/B10 human osteosarcoma cells
T1 sequence (Q03431 27-593): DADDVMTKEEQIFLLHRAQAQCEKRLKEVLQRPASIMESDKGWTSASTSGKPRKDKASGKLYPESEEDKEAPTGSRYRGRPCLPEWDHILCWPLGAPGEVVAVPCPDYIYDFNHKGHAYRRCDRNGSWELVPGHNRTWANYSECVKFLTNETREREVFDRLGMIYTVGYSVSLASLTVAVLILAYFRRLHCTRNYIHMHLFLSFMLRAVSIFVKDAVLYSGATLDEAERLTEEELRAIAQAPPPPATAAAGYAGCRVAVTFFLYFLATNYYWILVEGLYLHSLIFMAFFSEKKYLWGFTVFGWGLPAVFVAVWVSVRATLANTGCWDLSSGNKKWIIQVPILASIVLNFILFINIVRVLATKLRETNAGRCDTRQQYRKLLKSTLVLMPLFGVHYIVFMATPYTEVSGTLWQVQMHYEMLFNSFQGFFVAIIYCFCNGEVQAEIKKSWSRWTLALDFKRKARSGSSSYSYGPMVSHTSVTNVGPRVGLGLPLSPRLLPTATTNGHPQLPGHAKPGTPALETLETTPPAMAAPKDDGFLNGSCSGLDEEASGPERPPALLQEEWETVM
The assay can be described thus: Adenylate cyclase assay, human osteosarcoma B10 cell line (SaOS-2/B10). In kind it is cell-based. The settings on record: mean ± SEM, at least three experiments. As to the method: (§1) SaSO-2/B10 cells cultures. The details of maintenance of this cell line in culture were reported previously (see Chorev, M., et al., Intl. J. Peptide & Protein Res. 36, 465-470 (1990)).
(§2) PTH Receptor Binding and Adenylate Cyclase Assays. Kidney-based assays were performed with bovind renal cortical membranes following the procedures previously described (see Goldman, M. E., et al., Endocrinol. 123, 1468-1475 (1988)). Bone-based assays were performed with human SaOS-2/B10 cell cultures. Cyclic AMP was measured using the reported procedure (see Rodan, S. B., et al., J. Clin. Invest. 72, 1511-1515 (1983)), including modifications reported previously (see Chorev. M., et al., Intl. J. Peptide & Protein Res. 36, 465-470 (1990)). Receptor binding affinities for PTHrP analogs were obtained using cells plated in 24-wall dished in RPMI 1640 medium supplemented with 1% BSA, 20 mM HEPES, pH 7.5, and 0.1% azide. [Nle^8,^18, mono-^123 I-Tyr^4 ]bPTH(1-34)NH2 (50,000 cpm/well) was added to confluent monolayers in the absence or presence of varying amounts of analog in a final volume of 0.25 ml. Cultures were incubated at room temperature for 4 hours. Binding reactions were terminated by placing the cultures on ice and washing 4 times with ice cold phosphate buffered saline. Radioactivity associated with the cells was recovered by dissolving the cells in 1 ml of 1N NaOH.
(§3) Data analysis. Inhibition constants for binding (Kb) and adenylate cyclase (Kl) were calculated following a published method (see Cheng, Y. C., et al., Biochem. Pharmacol. 22, 3099-3108 (1973)).

The target in assay [2] is T2, PTH receptor (Homo sapiens, UniProt Q03431).
T2 construct: endogenous in cells; host or cells: SaOS-2/B10 human osteosarcoma cells
T2 sequence (Q03431 27-593): T1 sequence (Q03431 27-593)
Kind of assay: PTH receptor binding, human osteosarcoma B10 cell line (SaOS-2/B10). The note with it: inhibiting binding of 95 pM 125I-[Nle8,18,Tyr34]bPTH(1-34)NH2 (footnote a), mean ± SEM, at least three experiments, read-out: Binding Kb. As for the experimental part: as §1, §2, §3

In assay [3] the target is T3, adenylate cyclase (PTH receptor) in bovine renal cortical membranes (Bos taurus, UniProt Q1LZF7).
T3 construct: from tissue; host or cells: bovine renal cortical membranes
T3 sequence (Q1LZF7 29-589): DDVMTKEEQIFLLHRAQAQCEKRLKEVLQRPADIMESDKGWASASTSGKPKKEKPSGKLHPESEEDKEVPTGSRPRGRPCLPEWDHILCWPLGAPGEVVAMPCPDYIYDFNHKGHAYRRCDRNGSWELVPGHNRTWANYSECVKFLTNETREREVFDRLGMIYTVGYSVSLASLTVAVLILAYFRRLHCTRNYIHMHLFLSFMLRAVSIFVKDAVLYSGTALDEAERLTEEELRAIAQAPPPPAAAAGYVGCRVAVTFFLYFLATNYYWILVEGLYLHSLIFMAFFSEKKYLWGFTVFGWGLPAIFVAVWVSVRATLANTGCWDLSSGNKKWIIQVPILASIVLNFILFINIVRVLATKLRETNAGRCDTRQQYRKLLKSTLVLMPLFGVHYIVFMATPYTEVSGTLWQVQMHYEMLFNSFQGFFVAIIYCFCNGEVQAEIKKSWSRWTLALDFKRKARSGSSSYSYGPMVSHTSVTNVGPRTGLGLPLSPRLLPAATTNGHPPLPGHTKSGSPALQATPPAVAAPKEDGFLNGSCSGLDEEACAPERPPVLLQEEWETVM
Kind of assay: Adenylate cyclase assay, bovine renal cortical membranes. The settings on record: mean ± SEM, at least three experiments. In kind it is biochemical. As to the method:
as §2, §3

Assay [4] deals with T4, PTH receptor (Bos taurus, UniProt Q1LZF7).
T4 construct: from tissue; host or cells: bovine renal cortical membranes
T4 sequence (Q1LZF7 29-589): T3 sequence (Q1LZF7 29-589)
Kind of assay: PTH receptor binding, bovine renal cortical membranes. The note with it: inhibiting binding of 25 nM 125I-[Nle8,18,Tyr34]bPTH(1-34)NH2 (footnote c), mean ± SEM, at least three experiments, read-out: Binding Kb. As for the experimental part: as §2, §3

By Km is commonly meant the concentration of substrate that gives half-maximal velocity.

For “Ac[Cys^8 (S-2'-(N-succinyl-β-alanyl-3-idotyramide), Leu^11, D-Trp^12 ]-PTHrP(8-34)NH2 [analog 2A]”, the Ki in assay [1] (antagonizing 0.25 nM [Nle8,18,Tyr34]bPTH(1-34)NH2 (footnote b)) came to 2.8 ± 1 nM; in assay [2] it was 2.4 ± 0.5 nM; in assay [3] (antagonizing 3 nM [Nle8,18,Tyr34]bPTH(1-34)NH2 (footnote d)), 22 ± 5 nM; in assay [4], 2 ± 0.1 nM.

As to “[Cys^35 (S-2'-(N-succinyl-β-alanyl-3-iodotyramide)]PTHrP (1-35)NH2 [analog 1A]”, the Km in assay [1] is 0.5 ± 0.04 nM; in assay [3] it was 36 ± 7 nM. Besides, the values for the Ki in assay [2] and in assay [4] were 4.2 ± 0.7 nM and 14 ± 2 nM, respectively.

As to “[Nle^8,18,Lys^13 (ε-Biotinyl),Tyr^34,Cys^35 (S-2'-(N-succinyl-β-alanyl-3-iodotyramide)]bPTH(1-35)NH2 [analog 3A]”, the Km stood at 0.5 ± 0.06 nM in assay [1] and 6.4 ± 0.7 nM in assay [3]. Besides, the Ki in assay [2] was determined as 1.7 ± 0.2 nM; in assay [4] it was 2 ± 0.2 nM.
